Measurements reported in patent US8759537B2, “3H-imidazo [4, 5-C] pyridine-6-carboxamides as anti-inflammatory agents” (Boehringer Ingelheim International GmbH, priority 2010, dated 2014).

How the values were obtained:
[1] = molecular target: T1, mPGES-1 (Homo sapiens (Human), UniProt O14684); test: mPGES-1 enzyme assay (HTRF detection of PGE2); type: biochemical
Protocol: Microsomes from Rosetta E. coli bacteria expressing recombinant human mPGES-1 can be derived as described below:
Inoculate 5 ml LB with Ampicilin (50 μg/ml) and Chloramphenicol (34 μg/ml) with bacteria from freeze culture. Incubate 8 h at 37° C. with 200 rpm. Thereafter, inoculate 500-1000 ml LB containing Amp and Chloro with the 5 ml on culture and grow to OD640 of 0.8-1.0. Chill the culture to +4° C. before induction. Induce the culture with IPTG at a final concentration of 400 μM. Express the protein at room temp 18-23° C. with 200 rpm shaking over night.
The following steps can be performed on the following day: • 1. Spin down the cells in 250 ml centrifuge flasks for 15 min at 7000 rpm (Beckmann Coulte Avanti J-E centrifuge) • 2. Dissolve the pellet from 250 ml culture in 12.5 ml homogenization buffer • 3. (15 mM Tris-HCL pH8, 1 mM EDTA pH8, […], 2.5 mM GSH, 1 Tablet Protease inhibitor per 50 ml buffer) • 4. […] Add 2.5 ml MgCl2 (100 mM) and DNase 12.5 μl (0.8 mg/ml) and incubate on ice for 30 min • 6. Spin down the bacteria debris and save the supernatant, 7000 rpm for 15 min • 7. Isolate the protein containing membranes in the supernatant by ultracentrifugation 120000×g for 2 hour at 4° C. (Sorvall T880 rotor). • 8. Discard the supernatant and dissolve the pellet in 20 mM Potassium phosphate buffer pH7.4 (KH2PO4 and K2HPO4) buffer by sonication (5×10 s, 30% of a 50 W sonifier) and aliquot the enzyme and store aliquots at −80° C.
Before each experiment is performed an aliquot of the enzyme is thawed and it can then be dissolved in 0.1 M Potassium phosphate buffer pH7.4 (KH2PO4 and K2HPO4) buffer containing 2.5 mM GSH.
The aim of this assay is to determine the affinity of a test compound for the mPGES-1 enzyme.
47 μl of recombinant human mPGES-1 (˜0.5 μg protein/well) containing microsomal suspension in a buffer containing GSH, (2.5 mmol/L L-Glutathione reduced, dissolved in 0.1 mol/L Phosphat Buffer pH 7.4) is dispensed in a 384-well plate and thereafter 1 μl of the test compound(s) is/are added and incubated for 25 minutes at room temperature. The enzyme reaction is started by the addition of 2 ul PGH2 (final conc. 2 μM) dissolved in water-free Diglyme. After 60 seconds the reaction is terminated by addition of a stop solution containing FeCl2 (10 μL 0.074 mol/l FeCl2). The samples are diluted between 1:25 in PBS (Phosphate Buffered Saline). 10 μl of the diluted samples are transferred to 384-well low volume plate. In order to quantify the amount of PGE2 that has been formed, a homogenous time resolved fluorescent (HTRF) detecting of PGE2 has been performed using a commercially available kit from Cisbio according to the manufactures recommendation. […] Briefly, the diluted samples are mixed with 5 μl PGE2-d2 conjungate and 5 μl anti-PGE2 cryptate conjungate. After an incubation period of the plates over night, the fluorescence is measured by the use of an appropriate microplate reader.
The quantification plate contains also wells with different concentrations of PGE2 as calibration curve for the calculation of the PGE2 concentrations from the HTRF ratio values.
From all mPGES enzyme assay the background is subtracted and the IC50 is calculated over a nonlinear regression with conventional software.

[2] = molecular target: T1, mPGES-1; test: A549 cell-based assay (PGE2 formation, IL-1β stimulated, 50% human serum); settings: A549 cells
Method in brief: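 Human A549 cells (7000 cells/well) in F-12 medium with 50% human serum, with IL-1β stimulation. IC50 from 6-8 point titrations.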

[3] = recombinant human mPGES-1 microsomes, PGH2 2 μM, read-out: mPGES-1 inhibitory effect in the enzyme assay, IC50
[4] = IL-1β 5 ng/ml, read-out: mPGES-1 inhibitory effect in the cell assay, IC50
[5] = Table C comparison of selected benzimidazoles, read-out: Enzym IC50
[6] = Table C comparison of selected benzimidazoles, read-out: Cell IC50

T1 sequence (O14684 whole entry): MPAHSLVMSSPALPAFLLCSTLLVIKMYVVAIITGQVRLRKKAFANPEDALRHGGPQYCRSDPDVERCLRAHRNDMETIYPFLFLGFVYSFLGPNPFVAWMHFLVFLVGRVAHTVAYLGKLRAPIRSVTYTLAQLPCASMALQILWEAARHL

IC50 [1, 3] | IC50 [2, 4] | IC50 [1, 5] | IC50 [2, 6] | Compound
3 nM | < 1 nM | – | – | Cc1ccc(Cl)cc1NC(=O)c1cc2nc(Nc3c(Cl)ccc(CNC(=O)C(C)(C)C)c3Cl)n(C)c2cc1OCC(F)F [Example 54]
4 nM | < 1 nM | – | – | Cn1c(Nc2c(Cl)ccc(CNC(=O)C(C)(C)C)c2Cl)nc2cc(C(=O)NC3CC4CCC3C4)c(OCC(F)F)cc21 (stereo not shown) [Example 55]
4 nM | 3 nM | – | – | CCNC(=O)c1cc2nc(Nc3c(Cl)ccc(CNC(=O)C(C)(C)C)c3Cl)n(C)c2cc1OCC(F)F [Example 56]
4 nM | < 1 nM | – | – | Cn1c(Nc2c(Cl)ccc(CNC(=O)C(C)(C)C)c2Cl)nc2cc(C(=O)NCCc3ccccc3)c(OCC(F)F)cc21 [Example 57]
3 nM | 2 nM | – | – | Cn1c(Nc2c(Cl)ccc(CNC(=O)C(C)(C)C)c2Cl)nc2cc(C(=O)NCC(F)(F)F)c(OCC(F)F)cc21 [Example 58]
4 nM | < 1 nM | – | – | Cn1c(Nc2c(Cl)ccc(CNC(=O)C(C)(C)C)c2Cl)nc2cc(C(=O)Nc3ccc4c(c3)CCC4)c(OCC(F)F)cc21 [Example 59]
4 nM | < 1 nM | – | – | Cn1c(Nc2c(Cl)ccc(CNC(=O)C(C)(C)C)c2Cl)nc2cc(C(=O)Nc3ccc(C(F)(F)F)cn3)c(OCC(F)F)cc21 [Example 61]
2 nM | 1 nM | – | – | Cc1cc(C#N)c(NC(=O)c2cc3nc(Nc4c(Cl)ccc(CNC(=O)C(C)(C)C)c4Cl)n(C)c3cc2OCC(F)F)s1 [Example 62]
3 nM | 1 nM | – | – | Cc1cc(Cl)cnc1NC(=O)c1cc2nc(Nc3c(Cl)ccc(CNC(=O)C(C)(C)C)c3Cl)n(C)c2cc1OCC(F)F [Example 63]
2 nM | < 1 nM | – | – | Cn1c(Nc2c(Cl)ccc(CNC(=O)C(C)(C)C)c2Cl)nc2cc(C(=O)NC3CCC(F)(F)CC3)c(OCC(F)F)cc21 [Example 64]
4 nM | 6 nM | – | – | Cn1c(Nc2c(Cl)ccc(CNC(=O)C(C)(C)C)c2Cl)nc2cc(C(=O)Nc3ccncc3Cl)c(OCC(F)F)cc21 [Example 65]
4 nM | < 1 nM | – | – | Cn1c(Nc2c(Cl)ccc(CNC(=O)C(C)(C)C)c2Cl)nc2cc(C(=O)Nc3cccc(C(F)(F)F)n3)c(OCC(F)F)cc21 [Example 66]
2 nM | 1 nM | – | – | Cn1c(Nc2c(Cl)ccc(CNC(=O)C(C)(C)C)c2Cl)nc2cc(C(=O)Nc3cc(C(F)(F)F)ccn3)c(OCC(F)F)cc21 [Example 67]
2 nM | 3 nM | – | – | Cn1c(Nc2c(F)ccc(CNC(=O)C(C)(C)C)c2F)nc2cc(C(=O)Nc3cc(F)cc(Cl)c3)c(OCC(F)F)cc21 [Example 69]
4 nM | 16 nM | – | – | Cn1c(Nc2c(Cl)ccc(CNC(=O)C(C)(C)C)c2Cl)nc2cc(C(=O)Nc3nc(C(F)(F)F)cs3)c(F)cc21 [Example 70]
2 nM | 16 nM | – | – | Cc1ccc(CNC(=O)C(C)(C)C)c(C)c1Nc1nc2cc(C(=O)Nc3ccc(F)c(Cl)c3)c(OCC(F)F)cc2n1C [Example 71]
1 nM | 9 nM | – | – | Cn1c(Nc2c(F)ccc(CNC(=O)C(C)(C)C)c2F)nc2cc(C(=O)Nc3cccc(F)c3)c(OCC(F)F)cc21 [Example 72]
2 nM | 1 nM | – | – | Cn1c(Nc2c(Cl)ccc(CNC(=O)C(C)(C)C)c2Cl)nc2cc(C(=O)Nc3cccc(Cl)c3F)c(OCC(F)F)cc21 [Example 73]
9 nM | 1 nM | – | – | Cn1c(Nc2c(Cl)ccc(CNC(=O)C(C)(C)C)c2Cl)nc2cc(C(=O)Nc3ccc(F)c(F)c3)c(OCC(F)F)cc21 [Example 74]
2 nM | < 1 nM | – | – | Cn1c(Nc2c(Cl)ccc(CNC(=O)C(C)(C)C)c2F)nc2cc(C(=O)Nc3ccc(F)c(Cl)c3)c(OCC(F)F)cc21 [Example 75, N-(3-Chloro-4-fluoro-phenyl)-2-{6-chloro-2-fluoro-3-[(2,2-dimethyl-propionylamino)-methyl]-phenylamino}-6-(2,2-difluoroethoxy)-1-methyl-1H-benzimidazole-5-carboxylic acid amide]
2 nM | 12 nM | – | – | Cn1c(Nc2c(Cl)ccc(CNC(=O)C(C)(C)C)c2F)nc2cc(C(=O)NCC(F)(F)F)c(OCC(F)F)cc21 [Example 77]
1 nM | 7 nM | – | – | Cn1c(Nc2c(Cl)ccc(CNC(=O)N3CC(F)(F)C3)c2Cl)nc2cc(C(=O)N[C@H]3CC[C@H](C(F)(F)F)CC3)c(OCC(F)F)cc21 [Example 80, N-(trans-4-Trifluoromethyl-cyclohex-1-yl)-2-{2,6-dichloro-3-[(3,3-difluoro-azetidine-1-carbonylamino)-methyl]-phenylamino}-6-(2,2-difluoroethoxy)-1-methyl-1H-benzimidazole-5-carboxylic acid amide]
1 nM | 4 nM | – | – | Cn1c(Nc2c(Cl)ccc(CNC(=O)C(C)(C)C)c2Cl)nc2cc(C(=O)Nc3c(F)ccc(F)c3F)c(OCC(F)F)cc21 [Example 85]
1 nM | < 1 nM | – | – | COCCOc1cc2c(cc1C(=O)Nc1ccc(F)c(Cl)c1)nc(Nc1c(Cl)ccc(CNC(=O)C(C)(C)C)c1Cl)n2C [Example 178]
1 nM | < 1 nM | – | – | Cn1c(Nc2c(Cl)ccc(CNC(=O)C(C)(C)C)c2Cl)nc2cc(C(=O)Nc3ccc(F)c(Cl)c3)c(OC3CCOC3)cc21 (stereo not shown) [Example 179]
2 nM | 93 nM | – | – | CC(C)(C)C(=O)NCc1ccc(Cl)c(Nc2nc3cc(C(=O)N[C@H]4CC[C@H](C(F)(F)F)CC4)c(F)c(F)c3[nH]2)c1Cl [Example 180]
– | – | 3 nM | 17 nM | Cn1c(Nc2cc(CNC(=O)C(C)(C)C)ccc2Cl)nc2cc(C(=O)N[C@H]3CC[C@H](C(F)(F)F)CC3)c(OCC(F)F)cc21 [[drawing 47] of PCT/EP2010/052799, reference compound]
– | – | 2 nM | < 1 nM | Cn1c(Nc2c(Cl)ccc(CNC(=O)C(C)(C)C)c2Cl)nc2cc(C(=O)Nc3ccc(Br)cc3)c(OCC(F)F)cc21 [drawing 44]
– | – | 4 nM | 1 nM | Cn1c(Nc2c(Cl)ccc(CNC(=O)C(C)(C)C)c2Cl)nc2cc(C(=O)NCC3CC3)c(OCC(F)F)cc21 [drawing 48]

Compound | IC50 [1, 3] | IC50 [2, 4] | IC50 [1, 5] | IC50 [2, 6]
Cn1c(Nc2c(Cl)ccc(CNC(=O)C(C)(C)C)c2Cl)nc2cc(C(=O)Nc3ccc(Cl)cc3Cl)c(OCC(F)F)cc21 [Example 60, N-(2,4-dichloro-phenyl)-2-{2,6-dichloro-3-[(2,2-dimethyl-propionylamino)-methyl]-phenylamino}-6-(2,2-difluoro-ethoxy)-1-methyl-1H-benzimidazole-5-carboxylic acid amide] | 3 nM | < 1 nM | – | –
Cn1c(Nc2c(Cl)ccc(CNC(=O)C(C)(C)C)c2Cl)nc2cc(C(=O)N[C@H]3CC[C@H](C(F)F)CC3)c(OCC(F)F)cc21 [Example 68] | 2 nM | 1 nM | – | –
Cn1c(Nc2c(Cl)ccc(CNC(=O)C(C)(C)C)c2F)nc2cc(C(=O)N[C@H]3CC[C@H](C(F)(F)F)CC3)c(OCC(F)F)cc21 [Example 76] | 3 nM | 2 nM | – | –
Cn1c(Nc2c(Cl)ccc(CNC(=O)N3CCC(F)(F)C3)c2Cl)nc2cc(C(=O)N[C@H]3CC[C@H](C(F)(F)F)CC3)c(OCC(F)F)cc21 [Example 81] | 3 nM | 50 nM | – | –
CC1CCCN1C(=O)NCc1ccc(Cl)c(Nc2nc3cc(C(=O)N[C@H]4CC[C@H](C(F)(F)F)CC4)c(OCC(F)F)cc3n2C)c1Cl (stereo partly shown) [Example 82] | 1 nM | 43 nM | – | –
Cn1c(Nc2c(Cl)ccc(CNC(=O)C(C)(C)C)c2Cl)nc2cc(C(=O)N[C@H]3CC[C@H](C(F)(F)F)CC3)c(OCC(F)F)cc21 [drawing 46] | – | – | 2 nM | < 1 nM
